Drawing on US9914730B2, “Azaquinazoline inhibitors of Atypical protein Kinase C” (Ignyta, Inc., priority 2012, dated 2018), this text covers IC50 for 29 compounds.

The target of this assay is T1, full-length human PKCι (Homo sapiens, UniProt P41743).
T1 construct: Recombinant, full-length human PKCι expressed in Sf21 insect cells is also commercially available; purchased; host or cells: Sf21 insect cells
T1 sequence (P41743 1-596): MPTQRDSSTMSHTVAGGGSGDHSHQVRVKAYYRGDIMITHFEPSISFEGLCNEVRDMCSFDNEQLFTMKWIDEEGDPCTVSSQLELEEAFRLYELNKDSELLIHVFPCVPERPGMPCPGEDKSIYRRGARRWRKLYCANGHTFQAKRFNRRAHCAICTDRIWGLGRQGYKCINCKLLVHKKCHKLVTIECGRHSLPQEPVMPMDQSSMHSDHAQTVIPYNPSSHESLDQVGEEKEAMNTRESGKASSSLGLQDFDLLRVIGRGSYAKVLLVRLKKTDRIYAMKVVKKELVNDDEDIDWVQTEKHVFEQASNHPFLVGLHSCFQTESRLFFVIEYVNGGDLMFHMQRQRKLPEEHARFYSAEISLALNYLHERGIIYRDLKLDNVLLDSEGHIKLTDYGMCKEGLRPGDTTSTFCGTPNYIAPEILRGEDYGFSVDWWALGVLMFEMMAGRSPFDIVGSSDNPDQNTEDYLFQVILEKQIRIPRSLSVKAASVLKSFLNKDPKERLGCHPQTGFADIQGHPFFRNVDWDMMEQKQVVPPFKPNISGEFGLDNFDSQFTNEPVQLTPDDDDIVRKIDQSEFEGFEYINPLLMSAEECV
Nature of the assay: PKCι IC50 IMAP assay, full-length PKCι at 150 μM ATP. The assay is classed as biochemical. The conditions noted are these: read-out: IC50 in IMAP assay against full length PKCi at 150 μM ATP. The method in brief:
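Dose-response IC50 values come from IMAP fluorescence polarisation after 60 min room-temperature turnover of 100 nM FAM peptide by ~15 pM insect-cell-expressed full-length PKCι at 150 μM ATP (5× KM^APP), normalised to no-compound and no-enzyme controls.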

pIC50: −log10 of the molar value.

For `COc1cncc2nc(-c3ccnc(Nc4cc(C)ccn4)c3)nc(N3CCNCC3)c12` [Example 363, [4-(5-Methoxy-4-piperazin-1-yl-pyrido[3,4-d]pyrimidin-2-yl)-pyridin-2-yl]-(4-methyl-pyridin-2-yl)-amine], the pIC50 (as a rule, the IC50 on a negative log10 scale, so that one unit is a factor of ten) is greater than 7.00.
Then `C[C@H]1CN(c2nc(-c3ccnc4[nH]c(C(C)(C)C)cc34)nc3cncc(C4CCC4)c23)CCN1` [Example 2008, 2-(2-tert-Butyl-1H-pyrrolo[2,3-b]pyridin-4-yl)-5-cyclobutyl-4-((S)-3-methyl-piperazin-1-yl)-pyrido[3,4-d]pyrimidine], with greater than 7.00; and `Cc1ccc(-c2nccc3c(NC[C@@H](N)Cc4ccccc4)nc(-c4ccncc4)nc23)s1` [Example 111, N-[(2S)-2-amino-3-phenylpropyl]-8-(5-methyl-thiophen-2-yl)-2-(pyridin-4-yl)pyrido[3,4-d]pyrimidin-4-amine], with 6.00 to 7.00.
Under `c1ccc(C[C@H]2CN(c3nc(N4CCOCC4)nc4cnccc34)CCN2)cc1` [Example 1000, 4-((S)-3-Benzyl-piperazin-1-yl)-2-morpholin-4-yl-pyrido[3,4-d]pyrimidine] stands 5.00 to 6.00; under `COC[C@H]1CN(c2nc(N3CCOCC3)nc3cncc(OC)c23)CCN1` [Example 1009, 5-Methoxy-4-((R)-3-methoxymethyl-piperazin-1-yl)-2-morpholin-4-yl-pyrido[3,4-d]pyrimidine], 5.00 to 6.00.
Under `Clc1nccc2c(N3CCNCC3)nc(-c3ccncc3)nc12` [Example 32, 1-[8-chloro-2-(pyridin-4-yl)-pyrido[3,4-d]-pyrimidin-4-yl]-piperazine] stands 6.00 to 7.00; under `Fc1ccc(Cl)c(Nc2cc(-c3nc(N4CCNCC4)c4c(C5CC5)cncc4n3)ccn2)c1` [Example 576, (2-Chloro-5-fluoro-phenyl)-[4-(5-cyclopropyl-4-piperazin-1-yl-pyrido[3,4-d]pyrimidin-2-yl)-pyridin-2-yl]-Amine], greater than 7.00; under `C[C@@H](Nc1cc(-c2nc(N3CCNCC3)c3c(C4CC4)cncc3n2)ccn1)c1nc(F)ccc1F` [Example 802, [4-(5-Cyclopropyl-4-piperazin-1-yl-pyrido[3,4-d]pyrimidin-2-yl)-pyridin-2-yl]-[(R)-1-(3,6-difluoro-pyridin-2-yl)-ethyl]-amine], greater than 7.00.
Turning to `Cc1cc2c(-c3nc(N4CCN[C@@H](C5CC5)C4)c4c(C5CC5)cncc4n3)ccnc2[nH]1` [Example 1216, 5-Cyclopropyl-4-((S)-3-cyclopropyl-piperazin-1-yl)-2-(2-methyl-1H-pyrrolo[2,3-b]pyridin-4-yl)-pyrido[3,4-d]pyrimidine], the pIC50 is greater than 7.00.
Then `CC(Nc1cc(-c2nc(N3CCNCC3)c3c(C4CC4)cncc3n2)ccn1)C1CCCO1` (centres unmarked) [Example 2066, [4-(5-Cyclopropyl-4-piperazin-1-yl-pyrido[3,4-d]pyrimidin-2-yl)-pyridin-2-yl]-[1-(tetrahydro-furan-2-yl)-ethyl]-amine], with greater than 7.00.
Under `c1ccc(-n2cc(Nc3cc(-c4nc(N5CCNCC5)c5c(C6CC6)cncc5n4)ccn3)cn2)cc1` [Example 492, [4-(5-cyclopropyl-4-piperazin-1-yl-pyrido[3,4-d]pyrimidin-2-yl)-pyridin-2-yl]-(1-phenyl-1H-pyrazol-4-yl)-amine] stands greater than 7.00; under `CN(C)CCNc1nc(-c2ccnc(Nc3c(F)cccc3F)c2)nc2cncc(C3CC3)c12` [Example 776, N-{5-Cyclopropyl-2-[2-(2,6-difluoro-phenylamino)-pyridin-4-yl]-pyrido[3,4-d]pyrimidin-4-yl}-N′,N′-dimethyl-ethane-1,2-diamine], 6.00 to 7.00; under `O[C@H]1c2ccccc2C[C@@H]1Nc1cc(-c2nc(N3CCNCC3)c3c(C4CC4)cncc3n2)ccn1` (relative stereo) [Example 2158, trans-2-[4-(5-Cyclopropyl-4-piperazin-1-yl-pyrido[3,4-d]pyrimidin-2-yl)-pyridin-2-ylamino]-indan-1-ol], greater than 7.00.
Then `OC1CCN(c2nc(-c3ccnc(Nc4cnn(CC5CCNCC5)c4)c3)nc3cncc(C4CC4)c23)CC1` [Example 732, 1-{5-Cyclopropyl-2-[2-(1-piperidin-4-ylmethyl-1H-pyrazol-4-ylamino)-pyridin-4-yl]-pyrido[3,4-d]pyrimidin-4-yl}-piperidin-4-ol], with greater than 7.00.
With `Fc1cnc(Nc2ccccc2)cc1-c1nc(N2CCNCC2)c2c(C3CC3)cncc2n1` [Example 654, [4-(5-Cyclopropyl-4-piperazin-1-yl-pyrido[3,4-d]pyrimidin-2-yl)-5-fluoro-pyridin-2-yl]-phenyl-amine], the pIC50 was greater than 7.00.
Under `CNC1CCCN(c2nc(-c3ccnc(Nc4ncc(F)cc4F)c3)nc3cncc(C4CC4)c23)C1` (centres unmarked) [Example 2205, {4-[5-Cyclopropyl-4-(3-methylamino-piperidin-1-yl)-pyrido[3,4-d]pyrimidin-2-yl]-pyridin-2-yl}-(3,5-difluoro-pyridin-2-yl)-amine] stands greater than 7.00; under `O[C@@H]1CN(c2nc(-c3ccnc(Nc4ccccc4)c3)nc3cncc(C4CC4)c23)CC[C@@H]1O` (racemic) [Example 675, (+/−)-(cis)-1-[5-Cyclopropyl-2-(2-phenylamino-pyridin-4-yl)-pyrido[3,4-d]pyrimidin-4-yl]-piperidine-3,4-diol], 6.00 to 7.00; under `CN(CC1CCNCC1)c1nc(-c2ccnc3[nH]c(C(F)(F)F)cc23)nc2cncc(C3CC3)c12` [Example 2139, [5-Cyclopropyl-2-(2-trilfuoromethyl-1H-pyrrolo[2,3-b]pyridin-4-yl)-pyrido[3,4-d]pyrimidin-4-yl]-methyl-piperidin-4-ylmethyl-amine], greater than 7.00.
As to `COc1cncc2nc(-c3ccncc3)nc(N3CCN[C@@H](C(O)c4ccc(F)cc4)C3)c12` (mixture of isomers) [Example 77, (4-fluorophenyl) [(2R)-4-[5-methoxy-2-(pyridin-4-yl)-pyrido[3,4-d]-pyrimidin-4-yl]-piperazin-2-yl]-methanol], the pIC50 was greater than 7.00.
Then `COc1cncc2nc(-c3ccnc(Nc4ccccc4)c3)nc(N3CCN4C(=O)OC[C@H]4C3)c12` [Example 435, (R)-7-[5-Methoxy-2-(2-phenylamino-pyridin-4-yl)-pyrido[3,4-d]pyrimidin-4-yl]-hexahydro-oxazolo[3,4-a]pyrazin-3-one], with 6.00 to 7.00; and `COc1cncc2nc(-c3ccnc(Nc4cc(C#N)ccn4)c3)nc(N3CCNCC3)c12` [Example 352, 2-[4-(5-Methoxy-4-piperazin-1-yl-pyrido[3,4-d]pyrimidin-2-yl)-pyridin-2-ylamino]-isonicotinonitrile], with greater than 7.00; and `N#Cc1ccc(Nc2cc(-c3nc(N4CCNCC4)c4c(Cl)cncc4n3)ccn2)cn1` [Example 260, 5-[4-(5-Chloro-4-piperazin-1-yl-pyrido[3,4-d]pyrimidin-2-yl)-pyridin-2-ylamino]-pyridine-2-carbonitrile], with 4.40 to 5.00.
Under `Cc1cc2c(-c3nc(N4CCNCC4)c4c(C5CCC5)cncc4n3)ccnc2[nH]1` [Example 2112, 5-Cyclobutyl-2-(2-methyl-1H-pyrrolo[2,3-b]pyridin-4-yl)-4-piperazin-1-yl-pyrido[3,4-d]pyrimidine] stands greater than 7.00.
Under `Clc1cccc(Nc2cc(-c3nc(N4CCNCC4)c4c(C5CC5)cncc4n3)ccn2)c1Cl` [Example 542, [4-(5-Cyclopropyl-4-piperazin-1-yl-pyrido[3,4-d]pyrimidin-2-yl)-pyridin-2-yl]-(2,3-dichloro-phenyl)-amine] stands 6.00 to 7.00.
As for `Nc1cccc(C(=O)Nc2cc(-c3nc(N[C@@H]4CCNC4)c4ccncc4n3)ccn2)c1` [Example 309, 3-Amino-N-{4-[4-((R)-pyrrolidin-3-ylamino)-pyrido[3,4-d]pyrimidin-2-yl]-pyridin-2-yl}-benzamide], the pIC50 is 6.00 to 7.00.
Regarding `COc1cncc2nc(-c3ccnc(Nc4ccc(C5CCOCC5)cc4)c3)nc(N[C@@H]3CCNC3)c12` [Example 361, (5-Methoxy-2-{2-[4-(tetrahydro-pyran-4-yl)-phenylamino]-pyridin-4-yl}-pyrido[3,4-d]pyrimidin-4-yl)-(R)-pyrrolidin-3-yl-amine], the pIC50 is greater than 7.00.
Then `Cc1cncc2nc(-c3ccncc3)nc(N3CCNCC3)c12` [Example 138, 1-[5-methyl-2-(pyridin-4-yl)pyrido[3,4-d]pyrimidin-4-yl]piperazine], with greater than 7.00.
Turning to `O=C1OCC2CN(c3nc(-c4ccnc(Nc5ccccc5)c4)nc4cncc(C5CC5)c34)CCN12` (centres unmarked) [Example 525, 7-[5-Cyclopropyl-2-(2-phenylamino-pyridin-4-yl)-pyrido[3,4-d]pyrimidin-4-yl]-hexahydro-oxazolo[3,4-a]pyrazin-3-one], the pIC50 was 6.00 to 7.00.
Under `O[C@H](CNc1nc(-c2ccncc2)nc2cnccc12)Cc1ccccc1` [Example 15, (2S)-1-phenyl-3-{[2-(pyridin-4-yl)pyrido[3,4-d]-pyrimidin-4-yl]-amino}propan-2-ol] stands 5.00 to 6.00.
